Reference: PubChem BioAssay AID624485 (The Scripps Research Institute Molecular Screening Center, 2012)
Several values for one entry are separate records, joined by “and”; a condition that tells them apart may be missing. Equal entries are not always repeated. Activity calls are given as the source filed them.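 Rule for the calls: active = over 50% inhibition of probe labelling of the prolyl oligopeptidase-like enzyme in cells; inactive = inhibition at or below 50%.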

Biological target: Prolyl endopeptidase-like (Mus musculus) (UniProt Q8C167)
Sequence (Q8C167 whole entry, looked up): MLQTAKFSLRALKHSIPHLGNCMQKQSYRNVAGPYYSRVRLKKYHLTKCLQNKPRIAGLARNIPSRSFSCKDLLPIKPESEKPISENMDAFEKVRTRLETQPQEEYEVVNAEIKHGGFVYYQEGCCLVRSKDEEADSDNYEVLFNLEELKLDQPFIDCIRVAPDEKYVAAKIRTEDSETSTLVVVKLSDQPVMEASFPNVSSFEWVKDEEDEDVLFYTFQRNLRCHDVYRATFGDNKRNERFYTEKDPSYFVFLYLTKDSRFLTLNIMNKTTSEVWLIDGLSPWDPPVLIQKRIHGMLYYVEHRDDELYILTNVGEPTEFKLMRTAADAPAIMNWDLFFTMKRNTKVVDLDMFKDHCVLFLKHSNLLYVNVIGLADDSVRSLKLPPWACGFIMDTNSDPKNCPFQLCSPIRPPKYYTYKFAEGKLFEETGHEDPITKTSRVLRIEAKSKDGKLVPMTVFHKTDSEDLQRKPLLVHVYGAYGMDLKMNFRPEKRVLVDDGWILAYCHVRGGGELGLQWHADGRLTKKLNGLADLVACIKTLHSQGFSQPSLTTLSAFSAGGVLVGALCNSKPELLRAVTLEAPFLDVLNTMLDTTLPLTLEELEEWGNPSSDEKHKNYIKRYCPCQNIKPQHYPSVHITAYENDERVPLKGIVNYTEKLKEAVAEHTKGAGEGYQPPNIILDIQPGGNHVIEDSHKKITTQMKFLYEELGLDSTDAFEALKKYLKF
Test: in situ blockade of mouse PREPL – cell-based, click chemistry ABPP, gel, fluorescence (AID 624485)
Conditions: Neuro-2A transfected mPrepl, in situ gel CC-ABPP; at 50 µM; hits give high values

SMILES | inhibition
N#Cc1c2c(c(-c3ccccc3)[nH]c1=O)CCCC2 | 60%
CCOc1ccc(CCNC(=O)c2ccc3c(=O)[nH]c4c(C(=O)NC(C)C)sc(=S)n4c3c2)cc1 | -29% (inactive) and 0% (inactive)
O=C(Nc1ccc2c(c1)OCCO2)c1cccc2nc3ccccc3nc12 | -26% (inactive)
CC(C)Cc1[nH]c(=O)c(C#N)c2c1CCC2 | 90%
